Reference: article PMC7179274, “6′-β-Fluoro-Homoaristeromycin and 6′-Fluoro-Homoneplanocin A Are Potent Inhibitors of Chikungunya Virus Replication through Their Direct Effect on Viral Nonstructural Protein 1” (Antimicrobial Agents and Chemotherapy, 2020)
Substitutions are numbered along the chain they refer to. Entries after “also recorded” stand apart in the source; their conditions may differ. Read-outs that look alike come from different tables or passages of the source.

Experiments:
wt SFV nsP1 = molecular target: T1, wt SFV nsP1 (Semliki forest virus, UniProt P08411); test: nsP1 enzymatic activity assay (m7GMP-nsP1 intermediate formation), wt
T1 sequence (P08411 1-537): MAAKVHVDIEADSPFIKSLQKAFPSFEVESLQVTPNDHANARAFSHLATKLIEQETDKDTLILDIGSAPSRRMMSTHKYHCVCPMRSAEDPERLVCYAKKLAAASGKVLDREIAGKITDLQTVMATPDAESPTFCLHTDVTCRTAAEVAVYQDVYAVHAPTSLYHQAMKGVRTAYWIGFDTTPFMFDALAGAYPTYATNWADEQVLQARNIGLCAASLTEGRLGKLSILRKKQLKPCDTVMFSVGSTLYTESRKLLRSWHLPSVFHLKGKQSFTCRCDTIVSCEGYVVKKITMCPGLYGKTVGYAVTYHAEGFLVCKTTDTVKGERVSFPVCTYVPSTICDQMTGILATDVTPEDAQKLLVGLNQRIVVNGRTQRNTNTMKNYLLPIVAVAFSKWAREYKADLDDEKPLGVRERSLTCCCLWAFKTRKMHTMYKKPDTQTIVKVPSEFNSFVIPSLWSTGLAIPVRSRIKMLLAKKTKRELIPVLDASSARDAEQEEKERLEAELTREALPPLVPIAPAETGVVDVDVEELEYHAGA

SFV nsP1 K231R+K300E = molecular target: T2, SFV nsP1 K231R+K300E (Semliki forest virus, UniProt P08411, K231R/K300E); type: biochemical; conditions: 0 to 1 mM, 10 μM SAM, normalized to untreated control
T2 sequence (P08411 1-537 K231R/K300E): T1 sequence (P08411 1-537) with K231R, K300E

rCHIKV mutants = test: microbe, parasite or virus in culture; type: cell-based, Chikungunya virus; conditions: for Fold resistance: EC50 mutant/EC50 wt
SFV = test: CPE reduction assay, SFV
CHIKV = test: CPE reduction assay, CHIKV
SINV = test: CPE reduction assay, SINV; conditions: VeroE6 cells, MOI 0.025
[1] = molecular target: host enzyme SAH hydrolase; design: method as in PMID 26010585; conditions: in vitro; read-out: 50% inhibitory concentration, SAH hydrolase; cited from earlier work
VeroE6 cells = test: Cytotoxicity in uninfected cells (MTS/PMS) of the CPE reduction assay
[2] = Chikungunya virus, Vero C1008, read-out: Mean EC50 ± SD
[3] = Chikungunya virus, read-out: Mean EC50 ± SD
[4] = rCHIKV nsP1-G230R + nsP1-K299E + nsP3-*524R
[5] = rCHIKV nsP1-G230R + nsP1-K299E + nsP3-*524R, read-out: Mean EC50 ± SD
[6] = rCHIKV nsP1-G230R + nsP1-K299E, read-out: Mean EC50 ± SD
[7] = rCHIKV nsP1-R171Q, read-out: Mean EC50 ± SD

| Compound | EC50 (rCHIKV mutants; [2]) [µM] | EC50 (rCHIKV mutants; [3]) [µM] | Fold resistance (rCHIKV mutants; [4]) | EC50 (rCHIKV mutants; [5]) [µM] | Fold resistance (rCHIKV mutants; rCHIKV nsP1-G230R + nsP1-K299E) | EC50 (rCHIKV mutants; [6]) [µM] | Fold resistance (rCHIKV mutants; rCHIKV nsP1-R171Q) | EC50 (rCHIKV mutants; [7]) [µM] | also measured |
| --- | --- | --- | --- | --- | --- | --- | --- | --- | --- |
| Nc1ncnc2c1ncn2[C@@H]1O[C@H](CSCC[C@H](N)C(=O)O)[C@@H](O)[C@H]1O [SAH, S-adenosylhomocysteine, reference compound] |  |  |  |  |  |  |  |  | Inhibition of m7GMP-nsP1 formation, dose response (wt SFV nsP1; 0 to 1 mM, 10 μM SAM): inhibited in a dose-dependent manner; Inhibition of m7GMP-nsP1 formation (wt SFV nsP1; 1 mM, 100-fold molar excess over SAM (10 μM SAM)): fully inhibited; Inhibition of mutant compared to wt SFV nsP1 (SFV nsP1 K231R+K300E): inhibited by SAH to a similar extent; also recorded: inhibited by SAH to the same extent |
| 6′-β-fluoro-homoaristeromycin [FHA] |  |  |  |  |  |  |  |  | Resistance of rCHIKV G230R+K299E to the compound (rCHIKV mutants; rCHIKV G230R+K299E): resistant; SI (SFV) (SFV; CC50/EC50): >64; EC50 (SFV; read-out: EC50 (SFV), VeroE6 cells, MOI 0.025, MTS at 40 hpi, mean ± SD): 3.9 ± 3.5 µM; SI (CHIKV) (CHIKV; CC50/EC50): >1,000; EC50 (CHIKV; read-out: EC50 (CHIKV), VeroE6 cells, MOI 0.005, MTS at 96 hpi, mean ± SD): 0.12 ± 0.04 µM; Protection against SINV infection (SINV): did not confer protection; IC50 [1]: 0.37 µM; CC50 (VeroE6 cells; read-out: CC50 (CHIKV assay), CHIKV assay format): > 250 µM; CC50 (VeroE6 cells; read-out: CC50 (SFV assay), SFV assay format): > 250 µM; CC50 (VeroE6 cells; read-out: CC50 (SINV assay), SINV assay format): > 250 µM |
| COc1c(C)c2c(c(O)c1C/C=C(\C)CCC(=O)O)C(=O)OC2 [Mycophenolic acid, mycophenolic acid, reference compound] | 0.4 ± 0.01 | 6.3 ± 11.4 | 1 | 0.5 ± 0.03 | 3 | 1.1 ± 0.5 | 11 | 4.2 ± 2.8 |  |
| O=c1cnn([C@@H]2O[C@H](CO)[C@@H](O)[C@H]2O)c(=O)[nH]1 [6-Azauridine, 6-azauridine, reference compound] | 0.3 ± 0.01 | 8.9 ± 3.4 | 4 | 0.9 ± 0.1 | 4 | 1.1 ± 0.1 | 3 | 0.8 ± 0.1 |  |
| CCc1nc2c(nnn2-c2cccc(OC(C)C)c2)c(=O)[nH]1 [MADTP-372, reference compound] |  |  |  |  |  |  |  |  | Effect on formation of m7GMP-nsP1 intermediate (control compound) (wt SFV nsP1; 50 μM, 5 or 10 μM SAM): clearly inhibited the reaction |
